Measured values reported in US20090163436A1, “METHODS FOR DELIVERY OF NUCLEIC ACIDS” (Nucleonics, Inc., priority 2002, published 2009).
Where two headings read alike, the source gives them in different places.

How the values were obtained:
[1] = Example 4: phase location of DNA in cationic amphiphile emulsions; type: physicochemical; conditions: formulation containing the named cationic amphiphile
[2] = Example 4: oral delivery of luciferase plasmid microemulsions
Protocol: The objective is to develop microemulsion (ME) formulations designed for oral delivery of DNA. Microemulsions for oral delivery are prepared using a mixture that contains DNA or other nucleic acids (2.0 mg/mL in, e.g., 30 mM citrate, 150 mM NaCl pH 6.8 buffer) and benzalkonium chloride (0.1%). The mixture is further mixed in equal volumes to a mixture that contains seven parts of Labrasol™ (Gattefosse, Saint-Priest Cedex, France), one part of Lauroglycol (polypropylene esters such as Lauroglycol FCC for oral administration from Gattefosse, France) and two parts of ethanol. Other formulations contain bupivacaine at 0.25%, octyl spermine at 2.0 mg/mL, or cholesteryl spermine at 2.0 mg/mL, instead of benzalkonium chloride and lauroglycol in the above formulation. […] The DNA tested is an expression plasmid for luciferase (Promega Corp.). […] The formulation (100 uL) containing DNA is fed to mice (5 in one formulation group) by intubating the stomach. Five days following administration, several organs including kidney, liver, lung, intestinal segments (ileum, duodenum, small intestine and large intestine), brain, heart, and spleen are harvested and snap frozen. The tissues are homogenized in luciferase buffer (Promega Corp., Madison, Wis.) using a polytron. Luciferase activity is determined using a luminometer (Berthold) and in the assay buffer (Promega Corp., Madison, Wis.).

[3] = In vivo transfection with local anesthetic complexed DNA versus naked DNA; conditions: IL12 DNA complexed with 0.25% bupivacaine
From the text: As compared to cationic lipids, simple structures derived from water-soluble amphiphiles have a higher probability of forming transfecting structures that are uniform and homogenous, which is expected to result in increased efficiency, predictability, and potency. We selected cationic amphiphiles that are membrane active, such as the local anesthetics, e.g., bupivacaine (see U.S. Pat. No. 6,383,512, “Vesicular complexes and methods of making and using the same,” which describes compositions comprising lamellar vesicles that comprise a local anesthetic, e.g., bupivacaine, and a nucleic acid molecule). In particular, this reference describes compositions and methods for delivery of nucleic acid molecules that are antisense, ribozyme, or triplex forming nucleic acid molecules, as well as nucleic acid molecules that encode proteins (e.g., non-immunogenic therapeutically effective proteins, and immunogenic proteins designed to elicit a desired immune response in a host). Experiments were carried out to determine whether such vesicular complexes could be used to deliver dsRNA expression constructs capable of eliciting RNAi. […] Additionally, these are currently used in humans, and their toxicity/dose profiles are well characterized. In contrast, the associated toxicity of lipids that transfect efficiently in vitro may preclude their use in vivo. […]

[4] = test system: cells derived from the spleen; conditions: IV administration, separate study
Protocol: The complexes are prepared as described above except that 5 mM citrate and 150 mM NaCl are used as buffer. To determine the transfection efficiency, the spleen is removed from mice on day 5. Cells are recovered by crushing the spleen on a slide and observing EGFP fluorescence by fluorescent microscopy. The cell type is identified by cross-staining staining the preparation with labeled MAC1 antibody (macrophage identification) or labeled mannosylated BSA (identification of mannose receptor containing cells) (Current Protocols in Immunology).
In the study evaluating the distribution and blood clearance of DNA following an IV administration, labeled DNA is separately complexed with modified spermines (only monocomplexes of any one spermine is used in this study). Mannose (mono and bis) and lactose (mono and tri) spermines are used separately in these complexes. Unmodified spermine and spermidine complexes with DNA serve as controls.

[5] = Example 3: blood clearance of 14C-labeled plasmid DNA after IV administration
Protocol: Bacteria containing the beta-galactosidase expression plasmid are grown in minimal M9 media (Miller, CSHS laboratory Press) in glucose as the sole carbon source overnight. The cells are washed in minimal media thrice through centrifugation and resuspension in M9 media without the carbon source, and resuspended in M9 with uniformally 14C-labeled ribose (NEN, MA) and deoxynucleosides (NEN, MA) for 3 hours. The cells are harvested, and the plasmid is isolated using Qiagen miniprep columns (Qiagen, Inc., CA). The labeled plasmid is mixed with unlabeled plasmid to achieve a specific activity of 3 million CPM per 100 ug plasmid.
(§1) DNA is complexed with spermines as described in the previous two examples at the optimal charge ratio of 0.8 with either the monolactosyl, trilactosyl, or mannosyl (mono and bis) spermine to achieve a final DNA concentration of 1.0 mg/mL in citrate buffer at 5 mM and 150 mM NaCl.
The mice, 5 per group, are injected intravenously through the tail vein (100 uL). Mice are sacrificed at various times as indicated for serum analysis of plasmid DNA to determine blood clearance. To determine the amount of plasmid in blood, one mL of serum is placed in liquid scintillation counters with fluor to quantify the CPMs associated with each sample. […]

[6] = Example 3: tissue distribution of labeled DNA after IV administration; conditions: for total amount of CPMs in all of the organs combined, rank order: 5 days following IV, lung, heart, kidney, spleen, liver
Protocol: as §1
(§2) The mice, 5 per group, are injected intravenously through the tail vein (100 uL). Mice are sacrificed at various times as indicated for serum analysis of plasmid DNA to determine blood clearance. To determine the amount of plasmid in blood, one mL of serum is placed in liquid scintillation counters with fluor to quantify the CPMs associated with each sample. In order to determine tissue distribution, various organs are harvested on day 5 (peak of expression from previous studies) and snap frozen. Whole organs from the animals are harvested livers from 3 animals in the group of 5 are ground in mild alkali (100 mM KOH) and neutralized with acid (HCl) prior to scintillation counting. Livers from the remaining two animals are embedded in paraffin and sectioned as described in Example 2 and stained for betagalactosidase activity, as described.
(§3) In the second part of the study, distribution of DNA amongst some of the major organs is evaluated 5 days following IV administration. A simple tissue grind and scintillation counting is carried out. The organs chosen (lung, heart, kidney, spleen, and liver) for analysis represent the major capillary beds.

[7] = test system: liver cells (hepatocytes, Kupfer cells); conditions: IV; for liver cell type transfected: betagal staining of liver slices
Protocol: The mixture is injected intravenously (100 uL) of 5 mice for each formulation variant. Formulations variants included different charge ratios and various lactosyl spermine to cholesteryl spermine ratios. At 5 days postinjection, when in vivo plasmid expression peaks, the mice are sacrificed, and their livers are removed and snap frozen for histological analysis. Several slices of the liver tissue both near and farther from the major blood vessels and the bile ducts are embedded into paraffin and sectioned using a microtome. The tissue slices are stained using X-gal (an enzymatic substrate for betagalactosidase). The liver tissue slices are stained using labeled lactosylated BSA, as a cross stain to identify hepatocytes (asialoglycoprotein receptor). The slides are viewed under an UV fluoroscent microscope to detect the label fluorescence, and the betgal stain is observed under light microscopy. Control mice are administered “naked” DNA free of added complexing agents and DNA complexed with either lactosyl spermine or cholesteryl spermine, but not both.

[8] = test system: peritoneal cells (macrophages, dendritic cells)
Protocol: Peritoneal fluid was isolated from mice. Plasmid DNA designed to express the green fluorescent protein (GFP) in mammalian cells was complexed with a mixture of the two spermines, mannosyl-mannosyl-spermine and cholesteryl spermine, at different ratios. The complexes were applied to peritoneal cells in culture. The fluorescence intensity of the cells were recorded. The complexes that were prepared for the ex vivo study were injected into the peritoneal cavity of mice. Four and five days following the injection, the cells were collected from the peritoneal cavity and spun down on slides and their ability to fluoresce was determined. The fluorescence intensities were recorded visually.
Labeled antibodies to defined cell surface markers were used to identify the cell type.

[9] = mouse, in vivo, iv
Protocol: as §1, §2, §3

IL-12 p40 = test: Example 5: serum IL-12 p40 ELISA after intramuscular IL-12 plasmid in Balb/C mice; conditions: mouse, in vivo
Protocol: Expression of the murine IL-12 transgenes was achieved through the use of vectors containing the HCMV IE promoter and SV40 polyadenation signal. ELISA of serum IL-12 p40 levels affords a facile system to analyze expression levels and the effectiveness of the administered DNA. p40 is one of the two polypeptide chains comprising IL-12.
In all of the RNAi studies described here using IL12 DNA (IL12, dsRNA producing vector and vector encoding T7 RNA polymerase), IL12 DNA was administered as a complex with bupivacaine, a local anesthetic, since higher in vivo transfection efficiencies (˜3×) are achieved with this complex over those mediated by naked DNA. […]
In another set of experiments, murine IL-12 p40 expression in sera was monitored in mice following intramuscular injection of a 100 ug dose of murine IL-12 expression plasmids or in naïve mouse controls that were not injected. […]
Murine IL-12 p40 serum expression was monitored following intramuscular injection of 100 ug IL-12 expression plasmids in mice injected at days 0 and 150 or in mice injected only at day 150. […]

Molecule: CCCCN1CCCCC1C(=O)Nc1c(C)cccc1C (centres unmarked) [bupivacaine, reference compound]
- phase of the oil in water emulsion that holds the DNA [1]: in the oil phase
- systemic absorption of DNA ([2]; mouse, in vivo, po): Maximal systemic absorption
- in vivo transfection efficiency over naked DNA [3]: ~3 ×

Molecule: CC(=O)O.CC(=O)O.CC(=O)O.CC(=O)O.NCCCN(CCCCCNC(=O)CCS[C@H]1O[C@H](CO)[C@@H](O)[C@H](O)[C@@H]1O)CCCCN(CCCN)CCCCCNC(=O)CCS[C@H]1O[C@H](CO)[C@@H](O)[C@H](O)[C@@H]1O [bismannosyl spermine, N^4,N^8-bis (5-N-(α-3′-propionamido thiomannoside)pentyl)-spermine tetraacetate]
- cells taking up the complexes [4]: taken up exclusively by cells of the macrophage and dendritic cell lineages
- blood clearance slower than trilactosyl spermine complexes ([5]; DNA monocomplex): 50-100 times
- blood clearance of DNA ([5]; DNA monocomplex with the named spermine, charge ratio 0.8): rapid clearance
- total amount of CPMs in all of the organs combined, rank order [6]: trilactosyl>monolactosyl≅bismannosyl≅monomannosyl>>>controls

Molecule: lactosyl spermine
- liver cell type transfected [7]: primarily transfect hepatocytes
- DNA internalization, cell type ([7]; liver sections, day 5): exclusively into hepatocytes
- betagalactosidase expression ([7]; liver sections, no cholesteryl spermine in complex): poor
- retention of DNA ([6]; IV, DNA monocomplex with modified spermine): 30%

Molecule: benzalkonium chloride
- phase of the oil in water emulsion that holds the DNA [1]: in the oil phase
- systemic absorption of DNA ([2]; mouse, in vivo, po): Maximal systemic absorption

Molecule: CC(C)CCC[C@@H](C)[C@H]1CC[C@H]2[C@@H]3CC=C4C[C@@H](OC(=O)NCCCCCN(CCCN)CCCCNCCCN)CC[C@]4(C)[C@H]3CC[C@]12C.Cl [cholesteryl spermine, N^4-(5-N-(3β-O-carbamoyl-5-cholestene)-1-pentyl)-spermine Hydrochloride]
- phase of the oil in water emulsion that holds the DNA [1]: in the oil phase
- systemic absorption of DNA ([2]; oral microemulsion containing the named cationic amphiphile): Maximal systemic absorption

Molecule: N^4-(5-(trilactosyllysyllysyl) amidopentyl spermine triacetate [trilactosyl spermine]
- total amount of CPMs in all of the organs combined, rank order [6]: trilactosyl>monolactosyl≅bismannosyl≅monomannosyl>>>controls

Molecule: octyl spermine
- phase of the oil in water emulsion that holds the DNA [1]: in the oil phase
- systemic absorption of DNA ([2]; mouse, in vivo, po): Maximal systemic absorption

Molecule: mannosyl spermine
- expression from the internalized plasmid ([8]; GFP plasmid): observed only when cholesteryl spermine was included
- internalization of labeled DNA particles ([8]; all of the tested ratios): internalized
- liver cell type transfected [7]: transfect Kupfer cells
- retention of DNA [9]: 85%

B1: recombinant murine IL-12: recombinant murine IL-12 protein, 50 ug at day 0 (protein, UniProt P43431 23-215; P43432 23-335, looked up)
Interleukin-12 subunit alpha: RVIPVSGPARCLSQSRNLLKTTDDMVKTAREKLKHYSCTAEDIDHEDITRDQTSTLKTCLPLELHKNESCLATRETSSTTRGSCLPPQKTSLMMTLCLGSIYEDLKMYQTEFQAINAALQNHNHQQIILDKGMLVAIDELMQSLNHNGETLRQKPPVGEADPYRVKMKLCILLHAFSTRVVTINRVMGYLSSA
Interleukin-12 subunit beta: MWELEKDVYVVEVDWTPDAPGETVNLTCDTPEEDDITWTSDQRHGVIGSGKTLTITVKEFLDAGQYTCHKGGETLSHSHLLLHKKENGIWSTEILKNFKNKTFLKCEAPNYSGRFTCSWLVQRNMDLKFNIKSSSSSPDSRAVTCGMASLSAEKVTLDQRDYEKYSVSCQEDVTCPTAEETLPIELALEARQQNKYENYSTSFFIRDIIKPDPPKNLQMKPLKNSQVEVSWEYPDSWSTPHSYFSLKFFVRIQRKKEKMKETEEGCNQKGAFLVEKTSTEVQCKGGNVCVQAQDRYYNSSCSKWACVPCRVRS
- effect of pre-treatment on IL-12 expression (IL-12 p40): does not prevent subsequent expression
